“And” between values parts separate entries of the source, which are not always exact repeats. Identical values can stand only once.
Conditions: Liquid, Calculated from knudsen effusion weight loss

[Br-].[Br-].[Br-].[Tm+3] [thulium tribromide]
Conditions	vapor or sublimation pressure
921 K	0.0001148 kPa
924 K	0.0001259 kPa
927 K	0.0001349 kPa
931 K	0.0002042 kPa
937 K	0.0002042 kPa
938 K	0.0002188 kPa and 0.0002754 kPa
942 K	0.0002291 kPa
947 K	0.000309 kPa and 0.0004074 kPa
949 K	0.0003467 kPa
952 K	0.0004074 kPa
953 K	0.0003631 kPa
956 K	0.0004571 kPa
958 K	0.0005888 kPa
961 K	0.0005012 kPa
964 K	0.0006607 kPa
965 K	0.0006607 kPa
967 K	0.0007762 kPa
968 K	0.000631 kPa
971 K	0.0007244 kPa
974 K	0.0009772 kPa
976 K	0.000912 kPa
978 K	0.001096 kPa
980 K	0.0009772 kPa
984 K	0.001318 kPa
987 K	0.001288 kPa
988 K	0.001514 kPa and 0.001349 kPa
990 K	0.001445 kPa
995 K	0.001622 kPa
999 K	0.002399 kPa
1000 K	0.001995 kPa
1001 K	0.002239 kPa
1004 K	0.00257 kPa and 0.002291 kPa
1006 K	0.002692 kPa
1007 K	0.002455 kPa
1009 K	0.003236 kPa and 0.002951 kPa
1013 K	0.003236 kPa and 0.004074 kPa
1015 K	0.003467 kPa and 0.003162 kPa
1019 K	0.003548 kPa
1020 K	0.004571 kPa and 0.004677 kPa
1022 K	0.00537 kPa
1024 K	0.004365 kPa
1025 K	0.004677 kPa
1026 K	0.004786 kPa
1027 K	0.004571 kPa
1028 K	0.005623 kPa
1030 K	0.005623 kPa
1033 K	0.005495 kPa
1035 K	0.006607 kPa
1037 K	0.005754 kPa
1038 K	0.007762 kPa
1039 K	0.006918 kPa
1042 K	0.006607 kPa
1043 K	0.008511 kPa
1046 K	0.00955 kPa
1048 K	0.01288 kPa
1050 K	0.00955 kPa
1056 K	0.01349 kPa
1061 K	0.01445 kPa
1063 K	0.01318 kPa
1066 K	0.01995 kPa
1070 K	0.01995 kPa
1073 K	0.02754 kPa
1076 K	0.02512 kPa
1080 K	0.0263 kPa
1088 K	0.03388 kPa
1089 K	0.04074 kPa
1092 K	0.03467 kPa
1096 K	0.04266 kPa
1103 K	0.04677 kPa
1105 K	0.06457 kPa
1107 K	0.06166 kPa
1116 K	0.06761 kPa
1118 K	0.07943 kPa
1123 K	0.09772 kPa
1127 K	0.1047 kPa and 0.09333 kPa
1135 K	0.1288 kPa
1136 K	0.1349 kPa
1143 K	0.166 kPa
1155 K	0.2138 kPa

[I][Tm]([I])[I] [thulium triiodide]
Conditions	vapor or sublimation pressure
887 K	0.0001318 kPa
888 K	7.763e-05 kPa
897 K	0.0001585 kPa
899 K	0.0001175 kPa
902 K	0.0002089 kPa
905 K	0.0002344 kPa and 0.0001698 kPa
906 K	0.0002291 kPa and 0.0001585 kPa
907 K	0.0002089 kPa
909 K	0.0001585 kPa
911 K	0.0002884 kPa
912 K	0.0003162 kPa and 0.0002089 kPa
914 K	0.000309 kPa and 0.0002344 kPa
916 K	0.0002884 kPa and 0.0002089 kPa
920 K	0.0004467 kPa and 0.0004571 kPa
921 K	0.0003715 kPa
922 K	0.0003162 kPa
923 K	0.0003388 kPa
925 K	0.0004169 kPa and 0.0002884 kPa
928 K	0.0005012 kPa
930 K	0.000631 kPa and 0.0006607 kPa
931 K	0.0004169 kPa
932 K	0.000537 kPa and 0.0004677 kPa
933 K	0.000389 kPa
936 K	0.0006607 kPa
938 K	0.0008318 kPa and 0.0005495 kPa
939 K	0.0007079 kPa and 0.000912 kPa
940 K	0.0005248 kPa
941 K	0.0006607 kPa
946 K	0.000955 kPa and 0.001122 kPa
947 K	0.0007586 kPa
948 K	0.001148 kPa and 0.000955 kPa
949 K	0.0007244 kPa
951 K	0.0009772 kPa
953 K	0.001148 kPa
954 K	0.001479 kPa
955 K	0.001318 kPa and 0.001047 kPa
956 K	0.001585 kPa and 0.0009333 kPa
959 K	0.00182 kPa
960 K	0.001288 kPa
961 K	0.001445 kPa and 0.001905 kPa
963 K	0.001738 kPa and 0.001349 kPa
964 K	0.00123 kPa
966 K	0.002089 kPa and 0.002291 kPa and 0.001585 kPa
968 K	0.002754 kPa
969 K	0.001862 kPa
970 K	0.002512 kPa
971 K	0.002344 kPa and 0.001585 kPa
973 K	0.00257 kPa and 0.001862 kPa
975 K	0.002512 kPa
976 K	0.003631 kPa and 0.002951 kPa and 0.002138 kPa
978 K	0.003388 kPa
980 K	0.00309 kPa and 0.002042 kPa
981 K	0.002818 kPa and 0.002399 kPa
983 K	0.004365 kPa
984 K	0.002754 kPa
987 K	0.004571 kPa
988 K	0.00389 kPa
989 K	0.002818 kPa and 0.00309 kPa
991 K	0.005495 kPa and 0.005012 kPa
993 K	0.003548 kPa
999 K	0.007079 kPa and 0.00631 kPa
1002 K	0.004898 kPa
1006 K	0.009333 kPa
1008 K	0.00871 kPa
1014 K	0.01122 kPa
1017 K	0.01148 kPa
1024 K	0.01514 kPa
1025 K	0.01445 kPa
1032 K	0.01995 kPa
1034 K	0.0195 kPa
1043 K	0.02818 kPa and 0.0257 kPa
1051 K	0.03715 kPa and 0.03311 kPa

Reference: the NIST ThermoML archive (doi:10.1021/je030223f)
